Assay results reported in article PMC4498954 (Inorganic chemistry, 2010).

Target: methemoglobin (metHb, human hemoglobin, Fe(III) form) (Homo sapiens, UniProt P68871+P69905)
Sequence (P69905 2-142): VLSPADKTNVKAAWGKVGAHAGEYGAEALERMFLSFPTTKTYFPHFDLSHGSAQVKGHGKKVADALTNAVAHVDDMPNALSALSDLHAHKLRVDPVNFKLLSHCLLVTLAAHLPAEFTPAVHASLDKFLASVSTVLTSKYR
Sequence (P68871 2-147): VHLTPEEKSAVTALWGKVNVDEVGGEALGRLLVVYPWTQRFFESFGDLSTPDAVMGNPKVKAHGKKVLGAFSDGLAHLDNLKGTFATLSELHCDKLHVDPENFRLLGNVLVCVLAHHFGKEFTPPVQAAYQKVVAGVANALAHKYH

O=NO [nitrite]
Kd: 1240 ± 500 µM
